Experimental data taken from patent US7368422B2, “Semi-synthetic rearranged vancomycin/desmethyl-vancomycin-based glycopeptides with antibiotic activity” (Novartis Vaccines and Diagnostics Inc., priority 2005, dated 2008).
Values after ≈ are worked out from the molar mass of the structure shown.

What was measured:
Format in all cases: cell-based
[1] = tested on: methicillin-susceptible Staphylococus aureus (MSSA); experiment: MIC, NCCLS microdilution broth procedure, MSSA
Method: (§1) The following table identifies specific species of compounds according to the present invention and information concerning their associated antibacterial activity. The antibacterial activity of a compound in accordance with the present invention, chloro-biphenyl-rearranged norvacomycin (B), was tested and compared to unmodified vancomycin (Van) and norvancoycin (Nor). MIC (minimum inhibitory concentration) was measured according to NCCLS standards using the microdilution broth prodcedure. Serial dilutions of the compounds were placed in a 96-well microplate containing Mueller-Hinton medium. Based on absorbance of 600 nm, diluted overnight cultures were placed in the wells at a final concentration of 5×10^5 cfu/mL. The plate was then placed in a culture box at 35° C. The next day, MIC was determined by visual observation of the plates. The glycopeptides were tested against a variety of strains well known in the art for such testing, including methicillin-susceptible Staphylococus aureus (MSSA), methicillin-susceptible Staphylococus epidermidis (MSSE), methicillin-resistant Staphylococus aureus (MRSA), methicllin-resistant Staphylococus epidermidis (MRSE), and glycopeptide-intermediate Staphylococus aureus (GISA). Results are shown in the Table 1 as minimum inhibitory concentration (MIC) in units of μg/ml: […]

[2] = tested on: methicillin-resistant Staphylococus aureus (MRSA); experiment: MIC, NCCLS microdilution broth procedure, MRSA
Method: as §1

[3] = tested on: methicillin-susceptible Staphylococus epidermidis (MSSE); experiment: MIC, NCCLS microdilution broth procedure, MSSE
Method: as §1

[4] = tested on: methicllin-resistant Staphylococus epidermidis (MRSE); experiment: MIC, NCCLS microdilution broth procedure, MRSE
Method: as §1

[5] = tested on: glycopeptide-intermediate Staphylococus aureus (GISA) (V); experiment: MIC, NCCLS microdilution broth procedure, GISA (V)
Method: as §1

[6] = tested on: glycopeptide-intermediate Staphylococus aureus (GISA) (D); experiment: MIC, NCCLS microdilution broth procedure, GISA (D)
Method: as §1

SMILES: CN[C@H](CC(C)C)C(=O)N[C@H]1C(=O)N[C@@H](CC(N)=O)C(=O)N[C@H]2C(=O)N[C@H]3C(=O)N[C@H](C(=O)N[C@H](C(=O)O)c4cc(O)cc(O)c4-c4cc3ccc4O)[C@H](O)c3ccc(c(Cl)c3)Oc3cc2cc(c3O[C@@H]2O[C@H](CO)[C@@H](O)[C@H](O)[C@H]2O[C@H]2C[C@](C)(N)[C@H](O)[C@H](C)O2)Oc2ccc(cc2Cl)[C@H]1O [Van, vancomycin]
- minimum inhibitory concentration (MIC) ([1]; MSSA strain # 68): 2 mg/L (≈ 1.38 µM)
- minimum inhibitory concentration (MIC) ([1]; MSSA strain # 83): 2 mg/L (≈ 1.38 µM)
- minimum inhibitory concentration (MIC) ([2]; MRSA strain # 134): 2 mg/L (≈ 1.38 µM)
- minimum inhibitory concentration (MIC) ([2]; MRSA strain # 143): 2 mg/L (≈ 1.38 µM)
- minimum inhibitory concentration (MIC) ([3]; MSSE strain # 3): 2 mg/L (≈ 1.38 µM)
- minimum inhibitory concentration (MIC) ([3]; MSSE strain # 10): 2 mg/L (≈ 1.38 µM)
- minimum inhibitory concentration (MIC) ([4]; MRSE strain # 24): 2 mg/L (≈ 1.38 µM)
- minimum inhibitory concentration (MIC) ([4]; MRSE strain # 25): 2 mg/L (≈ 1.38 µM)
- minimum inhibitory concentration (MIC) ([4]; MRSE strain # 26): 2 mg/L (≈ 1.38 µM)
- minimum inhibitory concentration (MIC) ([5]; GISA (V) strain # 68): 8 mg/L (≈ 5.52 µM)
- minimum inhibitory concentration (MIC) ([5]; GISA (V) strain # 143): 8 mg/L (≈ 5.52 µM)
- minimum inhibitory concentration (MIC) ([6]; GISA (D) strain # 68): 8 mg/L (≈ 5.52 µM)
- minimum inhibitory concentration (MIC) ([6]; GISA (D) strain # 143): 4 mg/L (≈ 2.76 µM)

SMILES: CC(C)C[C@@H](N)C(=O)N[C@H]1C(=O)N[C@@H](CC(N)=O)C(=O)N[C@H]2C(=O)N[C@H]3C(=O)N[C@H](C(=O)N[C@H](C(=O)O)c4cc(O)cc(O)c4-c4cc3ccc4O)[C@H](O)c3ccc(c(Cl)c3)Oc3cc2cc(c3O[C@@H]2O[C@H](CO)[C@@H](O)[C@H](O)[C@H]2O[C@H]2C[C@](C)(N)[C@H](O)[C@H](C)O2)Oc2ccc(cc2Cl)[C@H]1O [Nor, norvancoycin]
- minimum inhibitory concentration (MIC) ([1]; MSSA strain # 68): 2 mg/L (≈ 1.39 µM)
- minimum inhibitory concentration (MIC) ([1]; MSSA strain # 83): 2 mg/L (≈ 1.39 µM)
- minimum inhibitory concentration (MIC) ([2]; MRSA strain # 134): 2 mg/L (≈ 1.39 µM)
- minimum inhibitory concentration (MIC) ([2]; MRSA strain # 143): 2 mg/L (≈ 1.39 µM)
- minimum inhibitory concentration (MIC) ([3]; MSSE strain # 3): 2 mg/L (≈ 1.39 µM)
- minimum inhibitory concentration (MIC) ([3]; MSSE strain # 10): 2 mg/L (≈ 1.39 µM)
- minimum inhibitory concentration (MIC) ([4]; MRSE strain # 24): 2 mg/L (≈ 1.39 µM)
- minimum inhibitory concentration (MIC) ([4]; MRSE strain # 25): 2 mg/L (≈ 1.39 µM)
- minimum inhibitory concentration (MIC) ([4]; MRSE strain # 26): 2 mg/L (≈ 1.39 µM)
- minimum inhibitory concentration (MIC) ([5]; GISA (V) strain # 68): 4 mg/L (≈ 2.79 µM)
- minimum inhibitory concentration (MIC) ([5]; GISA (V) strain # 143): 8 mg/L (≈ 5.57 µM)
- minimum inhibitory concentration (MIC) ([6]; GISA (D) strain # 68): 4 mg/L (≈ 2.79 µM)
- minimum inhibitory concentration (MIC) ([6]; GISA (D) strain # 143): 4 mg/L (≈ 2.79 µM)
